# Measurements: ChEMBL document CHEMBL5465560, “Selectivity Literature for EUbOPEN Chemogenomic Library” (2024)
# Assays:
# [1] = target: Tyrosine-protein kinase ABL1 (Homo sapiens, UniProt P00519); assay: Selectivity interaction (ActivX KiNativ screen (kinase selectivity in THP-1 cell lysates)) EUB0000639a ABL1; type: subcellular; conditions: lysate, at 1 µM
# [2] = target: Dual specificity mitogen-activated protein kinase kinase 2 (Homo sapiens) (UniProt P36507); assay: Selectivity interaction (ActivX KiNativ screen (kinase selectivity in THP-1 cell lysates)) EUB0000639a MAP2K2; type: subcellular; conditions: lysate, at 0.2 µM
# Sequence of Dual specificity mitogen-activated protein kinase kinase 2 (Homo sapiens) (P36507 whole entry): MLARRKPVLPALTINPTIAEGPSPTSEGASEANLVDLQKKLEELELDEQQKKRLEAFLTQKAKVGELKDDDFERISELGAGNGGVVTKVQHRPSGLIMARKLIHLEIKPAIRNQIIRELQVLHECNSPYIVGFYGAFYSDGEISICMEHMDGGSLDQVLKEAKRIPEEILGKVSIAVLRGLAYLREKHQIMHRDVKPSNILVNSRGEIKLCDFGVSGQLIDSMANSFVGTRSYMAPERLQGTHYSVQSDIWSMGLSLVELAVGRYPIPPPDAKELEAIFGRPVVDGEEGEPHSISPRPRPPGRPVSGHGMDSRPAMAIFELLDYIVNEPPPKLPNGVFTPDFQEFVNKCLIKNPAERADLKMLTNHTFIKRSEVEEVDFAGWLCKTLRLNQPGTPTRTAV
# [3] = target: Mitogen-activated protein kinase kinase kinase 4 (Homo sapiens) (UniProt Q9Y6R4); assay: Selectivity interaction (ActivX KiNativ screen (kinase selectivity in THP-1 cell lysates)) EUB0000639a MAP3K4; type: subcellular; conditions: lysate
# Sequence of Mitogen-activated protein kinase kinase kinase 4 (Homo sapiens) (Q9Y6R4 whole entry): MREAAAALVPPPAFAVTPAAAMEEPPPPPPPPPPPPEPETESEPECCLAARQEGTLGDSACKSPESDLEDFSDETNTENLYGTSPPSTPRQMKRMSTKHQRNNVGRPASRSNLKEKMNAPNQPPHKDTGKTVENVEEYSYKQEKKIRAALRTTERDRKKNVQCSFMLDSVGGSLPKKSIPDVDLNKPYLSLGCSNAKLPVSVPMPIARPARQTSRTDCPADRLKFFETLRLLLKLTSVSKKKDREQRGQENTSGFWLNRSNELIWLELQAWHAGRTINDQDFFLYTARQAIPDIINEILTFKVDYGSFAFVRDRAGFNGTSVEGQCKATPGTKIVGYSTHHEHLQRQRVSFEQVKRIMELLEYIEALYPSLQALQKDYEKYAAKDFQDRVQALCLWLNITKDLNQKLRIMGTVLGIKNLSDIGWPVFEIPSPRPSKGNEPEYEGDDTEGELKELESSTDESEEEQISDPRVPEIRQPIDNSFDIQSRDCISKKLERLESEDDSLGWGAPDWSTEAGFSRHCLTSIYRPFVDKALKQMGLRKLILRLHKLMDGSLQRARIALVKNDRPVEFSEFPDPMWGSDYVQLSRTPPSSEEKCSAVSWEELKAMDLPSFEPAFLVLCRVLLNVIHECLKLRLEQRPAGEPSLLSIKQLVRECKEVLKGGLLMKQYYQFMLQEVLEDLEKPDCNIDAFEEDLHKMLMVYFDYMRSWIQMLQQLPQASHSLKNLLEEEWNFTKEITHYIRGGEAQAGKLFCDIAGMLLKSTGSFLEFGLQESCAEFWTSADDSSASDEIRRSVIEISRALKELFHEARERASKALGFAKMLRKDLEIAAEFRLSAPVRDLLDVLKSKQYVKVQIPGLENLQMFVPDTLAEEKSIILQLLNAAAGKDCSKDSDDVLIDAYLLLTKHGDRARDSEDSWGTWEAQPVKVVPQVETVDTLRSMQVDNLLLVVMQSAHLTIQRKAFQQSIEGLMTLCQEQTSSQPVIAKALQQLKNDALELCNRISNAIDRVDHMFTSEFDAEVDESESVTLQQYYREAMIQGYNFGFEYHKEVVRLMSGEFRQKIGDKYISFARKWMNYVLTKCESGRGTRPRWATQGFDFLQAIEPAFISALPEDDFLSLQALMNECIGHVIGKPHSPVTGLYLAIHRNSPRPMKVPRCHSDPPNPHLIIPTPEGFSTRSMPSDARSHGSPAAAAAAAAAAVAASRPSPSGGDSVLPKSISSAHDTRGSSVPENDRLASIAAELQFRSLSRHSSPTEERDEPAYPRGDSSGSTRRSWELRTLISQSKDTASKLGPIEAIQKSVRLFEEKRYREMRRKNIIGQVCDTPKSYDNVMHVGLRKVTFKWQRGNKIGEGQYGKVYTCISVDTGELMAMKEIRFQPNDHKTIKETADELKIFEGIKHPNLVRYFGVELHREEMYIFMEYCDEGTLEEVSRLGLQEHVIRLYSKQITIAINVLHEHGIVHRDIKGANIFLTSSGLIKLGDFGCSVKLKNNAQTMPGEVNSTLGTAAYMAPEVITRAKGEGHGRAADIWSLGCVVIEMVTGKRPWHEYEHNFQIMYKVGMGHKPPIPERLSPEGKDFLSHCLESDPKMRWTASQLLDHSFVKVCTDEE
# [4] = target: Mitogen-activated protein kinase 9 (Homo sapiens, UniProt P45984); assay: Selectivity interaction (Kinase panel (Invitrogen)) EUB0000639a MAPK9; conditions: at 200 nM
# [5] = target: Serine/threonine-protein kinase N1 (Homo sapiens, UniProt Q16512); assay: Selectivity interaction (ActivX KiNativ screen (kinase selectivity in THP-1 cell lysates)) EUB0000639a PKN1; type: subcellular; conditions: lysate, at 0.2 µM
# Sequence of Serine/threonine-protein kinase N1 (Q16512 2-942 limits assumed): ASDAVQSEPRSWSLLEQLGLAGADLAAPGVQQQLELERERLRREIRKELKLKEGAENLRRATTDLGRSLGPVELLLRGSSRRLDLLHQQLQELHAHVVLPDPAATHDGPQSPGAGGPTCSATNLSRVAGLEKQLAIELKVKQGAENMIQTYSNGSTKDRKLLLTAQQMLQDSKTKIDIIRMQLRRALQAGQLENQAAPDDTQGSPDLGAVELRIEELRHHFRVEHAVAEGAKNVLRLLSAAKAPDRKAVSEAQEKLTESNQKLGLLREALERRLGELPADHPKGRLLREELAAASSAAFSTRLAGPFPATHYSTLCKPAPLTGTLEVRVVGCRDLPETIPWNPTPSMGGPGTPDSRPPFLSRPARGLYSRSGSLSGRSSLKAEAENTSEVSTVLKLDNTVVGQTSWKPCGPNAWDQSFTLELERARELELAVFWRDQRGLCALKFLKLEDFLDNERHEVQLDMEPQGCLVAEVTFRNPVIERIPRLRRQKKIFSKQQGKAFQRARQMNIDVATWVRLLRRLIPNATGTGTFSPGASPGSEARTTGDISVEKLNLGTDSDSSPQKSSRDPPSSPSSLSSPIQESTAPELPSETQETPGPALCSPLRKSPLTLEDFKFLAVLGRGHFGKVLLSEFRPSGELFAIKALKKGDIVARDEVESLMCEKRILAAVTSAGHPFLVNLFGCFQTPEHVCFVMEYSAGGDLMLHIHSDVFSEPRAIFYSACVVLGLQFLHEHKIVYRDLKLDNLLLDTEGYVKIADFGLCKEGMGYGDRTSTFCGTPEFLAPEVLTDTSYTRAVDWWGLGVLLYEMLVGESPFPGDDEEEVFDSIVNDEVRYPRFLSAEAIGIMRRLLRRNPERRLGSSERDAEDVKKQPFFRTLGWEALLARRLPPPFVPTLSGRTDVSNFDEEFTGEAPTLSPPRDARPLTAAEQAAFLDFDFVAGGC
# [6] = target: Ribosomal protein S6 kinase alpha-1 (Homo sapiens, UniProt Q15418); assay: Selectivity interaction (KinomeScan (DiscoverX)) EUB0000092b RPS6KA1; conditions: at 10 µM
# [7] = target: T1, Serine/threonine-protein kinase ULK1 (Homo sapiens) (UniProt O75385); assay: Selectivity interaction (KinomeScan (DiscoverX)) EUB0000618a ULK1; conditions: at 10 µM
# T1 sequence (whole entry): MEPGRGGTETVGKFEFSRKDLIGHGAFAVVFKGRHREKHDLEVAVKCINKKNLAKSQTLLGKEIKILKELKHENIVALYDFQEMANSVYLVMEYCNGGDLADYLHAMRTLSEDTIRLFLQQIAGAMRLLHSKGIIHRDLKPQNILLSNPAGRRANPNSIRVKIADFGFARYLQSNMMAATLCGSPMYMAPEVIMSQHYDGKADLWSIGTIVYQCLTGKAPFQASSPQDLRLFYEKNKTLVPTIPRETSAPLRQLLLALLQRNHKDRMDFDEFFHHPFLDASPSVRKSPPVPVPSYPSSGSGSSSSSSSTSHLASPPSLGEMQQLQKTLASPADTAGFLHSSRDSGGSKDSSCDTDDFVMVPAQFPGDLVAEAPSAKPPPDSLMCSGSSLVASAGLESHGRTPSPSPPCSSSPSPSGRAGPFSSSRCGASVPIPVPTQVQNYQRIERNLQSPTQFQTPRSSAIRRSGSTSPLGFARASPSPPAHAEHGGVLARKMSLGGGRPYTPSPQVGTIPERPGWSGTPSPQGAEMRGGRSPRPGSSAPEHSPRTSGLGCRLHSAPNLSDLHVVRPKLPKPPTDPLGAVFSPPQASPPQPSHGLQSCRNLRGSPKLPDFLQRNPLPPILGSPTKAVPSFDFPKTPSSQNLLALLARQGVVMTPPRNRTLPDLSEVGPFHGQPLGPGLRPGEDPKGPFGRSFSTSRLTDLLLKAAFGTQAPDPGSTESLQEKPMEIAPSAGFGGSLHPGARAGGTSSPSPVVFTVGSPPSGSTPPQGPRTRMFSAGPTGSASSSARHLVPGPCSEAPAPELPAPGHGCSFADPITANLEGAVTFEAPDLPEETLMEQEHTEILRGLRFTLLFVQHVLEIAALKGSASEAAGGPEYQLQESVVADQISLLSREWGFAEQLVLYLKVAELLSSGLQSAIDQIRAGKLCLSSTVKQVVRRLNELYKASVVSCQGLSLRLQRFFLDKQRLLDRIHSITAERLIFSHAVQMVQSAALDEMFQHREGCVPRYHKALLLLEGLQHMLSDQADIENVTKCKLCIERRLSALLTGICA
# [8] = target: Death-associated protein kinase 3 (Homo sapiens) (UniProt O43293); conditions: at 10 µM
# [9] = target: Cyclin-dependent kinase 17 (Homo sapiens) (UniProt Q00537); assay: Selectivity interaction (KinomeScan (DiscoverX)) EUB0001619a CDK17; conditions: at 1 µM
# [10] = target: Serine/threonine-protein kinase pim-1 (Homo sapiens, UniProt P11309); assay: Selectivity interaction (KinomeScan (DiscoverX)) EUB0001619a PIM1; conditions: at 1 µM
# [11] = target: Serine/threonine-protein kinase PRP4 homolog (Homo sapiens) (UniProt Q13523); assay: Selectivity interaction (KinomeScan (DiscoverX)) EUB0001619a PRPF4; conditions: at 1 µM
# [12] = target: Tyrosine-protein kinase receptor UFO (Homo sapiens) (UniProt P30530); assay: Selectivity interaction (Upstate Kinase Profiler service (Millipore)) EUB0000056c AXL; conditions: at 1 µM
# [13] = target: Calcium/calmodulin-dependent protein kinase type 1 (Homo sapiens) (UniProt Q14012); assay: Selectivity interaction (KinomeScan (DiscoverX)) EUB0000655a CAMK1; conditions: at 10 µM
# [14] = target: Phosphorylase b kinase gamma catalytic chain, skeletal muscle/heart isoform (Homo sapiens) (UniProt Q16816); assay: Selectivity interaction (KinomeScan (DiscoverX)) EUB0000607a PHKG1; conditions: at 10 µM
# [15] = target: RAF proto-oncogene serine/threonine-protein kinase (Homo sapiens) (UniProt P04049); assay: Selectivity interaction (KinomeScan (DiscoverX)) EUB0000607a RAF1; conditions: at 10 µM
# [16] = target: Ribosomal protein S6 kinase alpha-5 (Homo sapiens) (UniProt O75582); assay: Selectivity interaction (KinomeScan (DiscoverX)) EUB0000607a RPS6KA5; conditions: at 10 µM
# Activated CDC42 kinase 1 = Activated CDC42 kinase 1 (Homo sapiens, UniProt Q07912); assay: Selectivity interaction (Kinase panel (Carna Biosciences)) EUB0001542aTs TNK2; conditions: at 1 µM
# Sequence of Activated CDC42 kinase 1 (Q07912 whole entry, looked up): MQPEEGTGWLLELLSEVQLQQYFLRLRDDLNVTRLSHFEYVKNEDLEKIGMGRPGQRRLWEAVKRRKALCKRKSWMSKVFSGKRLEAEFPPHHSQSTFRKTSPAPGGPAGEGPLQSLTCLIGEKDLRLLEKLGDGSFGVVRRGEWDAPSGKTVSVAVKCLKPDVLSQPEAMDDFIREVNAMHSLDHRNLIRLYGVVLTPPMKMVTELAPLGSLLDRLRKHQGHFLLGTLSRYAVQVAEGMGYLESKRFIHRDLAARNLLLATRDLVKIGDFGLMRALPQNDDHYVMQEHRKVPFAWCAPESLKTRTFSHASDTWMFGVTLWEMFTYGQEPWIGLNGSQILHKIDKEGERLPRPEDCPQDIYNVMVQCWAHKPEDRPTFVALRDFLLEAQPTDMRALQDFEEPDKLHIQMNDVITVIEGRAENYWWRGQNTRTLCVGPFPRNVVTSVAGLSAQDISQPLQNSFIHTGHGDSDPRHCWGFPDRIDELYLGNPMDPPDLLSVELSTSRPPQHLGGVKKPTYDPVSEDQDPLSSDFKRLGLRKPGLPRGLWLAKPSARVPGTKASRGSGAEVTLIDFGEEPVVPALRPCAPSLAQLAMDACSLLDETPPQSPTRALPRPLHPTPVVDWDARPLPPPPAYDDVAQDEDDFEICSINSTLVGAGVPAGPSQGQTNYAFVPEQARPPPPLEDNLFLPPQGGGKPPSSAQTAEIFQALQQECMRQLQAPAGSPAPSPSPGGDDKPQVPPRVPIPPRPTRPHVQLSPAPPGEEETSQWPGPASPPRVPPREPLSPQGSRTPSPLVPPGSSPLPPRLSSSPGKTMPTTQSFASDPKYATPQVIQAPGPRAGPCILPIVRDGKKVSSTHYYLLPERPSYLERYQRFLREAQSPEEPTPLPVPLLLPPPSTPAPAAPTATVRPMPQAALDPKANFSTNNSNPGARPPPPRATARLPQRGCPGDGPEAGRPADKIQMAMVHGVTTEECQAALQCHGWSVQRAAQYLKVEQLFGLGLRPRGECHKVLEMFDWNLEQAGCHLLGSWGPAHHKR
# Sequence of Tyrosine-protein kinase ABL1 (P00519 whole entry): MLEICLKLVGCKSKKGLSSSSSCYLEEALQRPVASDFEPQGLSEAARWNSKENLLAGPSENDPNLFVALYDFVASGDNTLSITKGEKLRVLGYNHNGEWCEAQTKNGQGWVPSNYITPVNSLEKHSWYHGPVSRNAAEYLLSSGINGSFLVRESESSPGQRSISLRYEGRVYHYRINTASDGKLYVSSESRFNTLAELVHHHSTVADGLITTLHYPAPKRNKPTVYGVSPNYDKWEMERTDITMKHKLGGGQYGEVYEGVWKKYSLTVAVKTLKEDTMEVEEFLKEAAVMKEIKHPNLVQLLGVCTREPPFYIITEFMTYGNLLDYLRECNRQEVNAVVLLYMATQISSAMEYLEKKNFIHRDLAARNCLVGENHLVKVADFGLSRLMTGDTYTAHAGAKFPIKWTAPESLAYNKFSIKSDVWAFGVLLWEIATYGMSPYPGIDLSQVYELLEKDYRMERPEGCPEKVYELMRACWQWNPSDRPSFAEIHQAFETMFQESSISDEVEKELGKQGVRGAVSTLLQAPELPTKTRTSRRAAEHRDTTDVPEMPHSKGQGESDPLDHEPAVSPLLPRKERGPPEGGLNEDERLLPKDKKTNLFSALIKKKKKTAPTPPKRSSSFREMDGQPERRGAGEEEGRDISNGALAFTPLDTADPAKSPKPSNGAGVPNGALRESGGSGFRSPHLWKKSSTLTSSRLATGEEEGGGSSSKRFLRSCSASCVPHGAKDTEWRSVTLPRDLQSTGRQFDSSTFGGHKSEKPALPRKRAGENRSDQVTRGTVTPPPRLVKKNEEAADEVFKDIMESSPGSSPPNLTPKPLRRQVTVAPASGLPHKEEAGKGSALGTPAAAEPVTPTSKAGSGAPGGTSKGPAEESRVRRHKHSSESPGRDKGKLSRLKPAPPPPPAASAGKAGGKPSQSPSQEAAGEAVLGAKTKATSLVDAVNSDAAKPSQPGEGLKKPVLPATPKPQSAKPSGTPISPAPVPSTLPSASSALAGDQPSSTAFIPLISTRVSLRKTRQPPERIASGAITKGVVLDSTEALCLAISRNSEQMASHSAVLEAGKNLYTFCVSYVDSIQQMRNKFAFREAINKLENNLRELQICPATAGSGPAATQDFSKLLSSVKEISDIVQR
compound,measurement,setting,value
CC[C@@H]1[C@H](F)C(=O)N[C@@H]1COc1nccc2cc(C(N)=O)c(OC)cc12 [ZIMLOVISERTIB],% of inhibition,[1],-13.2%
same,% of inhibition,[2],11.6%
same,% of inhibition,[3]; at 0.01 µM,18.5%
same,% of inhibition,[3]; at 0.04 µM,-5.7%
same,% of inhibition,[3]; at 0.2 µM,-1.4%
same,% of inhibition,[3]; at 1 µM,-23%
same,% of inhibition,[3]; at 5 µM,6.4%
same,% of inhibition,[4],2.83%
same,% of inhibition,[5],5.5%
CCC(=O)N1CCN(c2ccc(-n3c(=O)ccc4cnc5ccc(-c6cnc7ccccc7c6)cc5c43)cc2C(F)(F)F)CC1,% of control,[6],100%
O[C@H]1CC[C@H](Nc2ncc3nc(Nc4c(F)cc(F)cc4F)n([C@H]4CCOC4)c3n2)CC1,% of control,[7],84%
Cc1cc([C@@H](C)Nc2ccccc2C(=O)O)c2nc(N3CCOCC3)cc(=O)n2c1 [AZD-6482],% of control,[8],100%
N#Cc1cccc(-c2c[nH]c3ncnc(N4CCOCC4)c23)c1,% of control,[9],100%
same,% of control,[10],100%
same,% of control,[11],92%
Cc1ccc(-c2ccc3c(ccc4sc5c(c43)NC[C@@H](C)NC5=O)n2)cn1,% of inhibition,[12],58%
CN(C)CCOc1ccc(-c2nc(-c3ccncc3)c(-c3ccc4c(c3)CC/C4=N\O)[nH]2)cc1,% of control,[13],93%
CNC(=O)Nc1ccc(-c2nc(N3CC4CCC(C3)O4)c3cnn(C4CCC5(CC4)OCCO5)c3n2)cc1,% of control,[14],100%
same,% of control,[15],100%
same,% of control,[16],90%
Cn1cc(Nc2nccc(N3CC4CCC(C3)N4C(=O)[C@@H]3CC3(F)F)n2)cn1,% of inhibition,Activated CDC42 kinase 1,82%
